ChEMBL document CHEMBL3045398, “Fungicidal activities of cyflufenamid against various plant-pathogenic fungi” (J Pestic Sci, 2006)
The source made the active and inactive calls. No cut-off for these calls is given here.

Legend:
Oculimacula yallundae = test: Fungicidal activity against Oculimacula yallundae assessed as inhibition of mycelial growth measured after 3 to 20 days by agar dilution method; type: functional, organism-based
Phomopsis = test: Fungicidal activity against Phomopsis sp. assessed as inhibition of mycelial growth measured after 3 to 20 days by agar dilution method; type: functional, organism-based
Pestalotia longiseta = test: Fungicidal activity against Pestalotia longiseta assessed as inhibition of mycelial growth measured after 3 to 20 days by agar dilution method; type: functional, organism-based, Pestalotiopsis longiseta
Helicobasidium mompa = test: Fungicidal activity against Helicobasidium mompa assessed as inhibition of mycelial growth measured after 3 to 20 days by agar dilution method; type: functional, organism-based
Monilinia fructicola [1] = test: Fungicidal activity against Monilinia fructicola assessed as rounded hyphae and various size vessicles measured by Transmission electron microscopy; type: functional, organism-based
Monilinia fructicola [2] = test: Fungicidal activity against Monilinia fructicola assessed as large septa measured by Transmission electron microscopy; type: functional, organism-based
[3] = tested on: Blumeria graminis f. sp. tritici; test: Fungicidal activity against Blumeria graminis f. sp. tritici on wheat leaves assessed as rate of appressorium formation measured at 0.2 ppm after 76 hr; type: functional
[4] = tested on: Blumeria graminis f. sp. tritici; test: Fungicidal activity against Blumeria graminis f. sp. tritici on wheat leaves assessed as rate of appressorium formation measured at 0.8 ppm after 76 hr; type: functional
[5] = tested on: Blumeria graminis f. sp. tritici; test: Fungicidal activity against Blumeria graminis f. sp. tritici on wheat leaves assessed as rate of appressorium formation measured at 3.1 ppm after 76 hr; type: functional
[6] = tested on: Blumeria graminis f. sp. tritici; test: Fungicidal activity against Blumeria graminis f. sp. tritici on wheat leaves assessed as rate of appressorium formation measured at 12.5 ppm after 76 hr; type: functional
[7] = tested on: Blumeria graminis f. sp. tritici; test: Fungicidal activity against Blumeria graminis f. sp. tritici on wheat leaves assessed as rate of appressorium formation measured at 12.5 ppm after 24 hr (reference value: 89.7 +/- 4%); type: functional
[8] = tested on: Blumeria graminis f. sp. tritici; test: Fungicidal activity against Blumeria graminis f. sp. tritici on wheat leaves assessed as rate of appressorium formation measured at 12.5 ppm after 3 hr (reference value: 1.7 +/- 1.4%); type: functional
Cytospora ceratosperma = test: Fungicidal activity against Valsa ceratosperma assessed as inhibition of mycelial growth measured after 3 to 20 days by agar dilution method; type: functional, organism-based
Trichoderma viride = test: Fungicidal activity against Hypocrea rufa assessed as inhibition of mycelial growth measured after 3 to 20 days by agar dilution method; type: functional, organism-based
Taphrina deformans = test: Fungicidal activity against Taphrina deformans assessed as inhibition of mycelial growth measured after 3 to 20 days by agar dilution method; type: functional, organism-based
Sclerotinia sclerotiorum = test: Fungicidal activity against Sclerotinia sclerotiorum assessed as inhibition of mycelial growth measured after 3 to 20 days by agar dilution method; type: functional, organism-based
[9] = tested on: Blumeria graminis f. sp. tritici; test: Fungicidal activity against Blumeria graminis f. sp. tritici on wheat leaves assessed as colony formation measured at 0.8 ppm; type: functional
[10] = tested on: Blumeria graminis f. sp. tritici; test: Fungicidal activity against Blumeria graminis f. sp. tritici on wheat leaves assessed as colony formation measured at 12.5 ppm; type: functional
[11] = tested on: Blumeria graminis f. sp. tritici; test: Fungicidal activity against Blumeria graminis f. sp. tritici on wheat leaves assessed as rate of appressorium formation measured at 0.2 ppm after 168 hr; type: functional
[12] = tested on: Blumeria graminis f. sp. tritici; test: Fungicidal activity against Blumeria graminis f. sp. tritici on wheat leaves assessed as rate of appressorium formation measured at 0.8 ppm after 168 hr; type: functional
Fusarium graminearum = test: Fungicidal activity against Fusarium graminearum assessed as inhibition of mycelial growth measured after 3 to 20 days by agar dilution method; type: functional, organism-based
Fulvia fulva = test: Fungicidal activity against Fulvia fulva assessed as inhibition of mycelial growth measured after 3 to 20 days by agar dilution method; type: functional, organism-based
Elsinoe ampelina = test: Fungicidal activity against Elsinoe ampelina assessed as inhibition of mycelial growth measured after 3 to 20 days by agar dilution method; type: functional, organism-based
Discula theae-sinensis = test: Fungicidal activity against Discula theae-sinensis assessed as inhibition of mycelial growth measured after 3 to 20 days by agar dilution method; type: functional, organism-based, Sinodiscula theae-sinensis
Colletotrichum lagenaria = test: Fungicidal activity against Colletotrichum lagenaria assessed as inhibition of mycelial growth measured after 3 to 20 days by agar dilution method; type: functional, organism-based
Bipolaris oryzae = test: Fungicidal activity against Bipolaris oryzae assessed as inhibition of mycelial growth measured after 3 to 20 days by agar dilution method; type: functional, organism-based
Cercospora kikuchii = test: Fungicidal activity against Cercospora kikuchii assessed as inhibition of mycelial growth measured after 3 to 20 days by agar dilution method; type: functional, organism-based
Cercospora beticola = test: Fungicidal activity against Cercospora beticola assessed as inhibition of mycelial growth measured after 3 to 20 days by agar dilution method; type: functional, organism-based
Botrytis cinerea [13] = test: Fungicidal activity against Botryotinia fuckeliana assessed as inhibition of mycelial growth measured after 3 to 20 days by agar dilution method; type: functional, organism-based
Podosphaera pannosa = test: Fungicidal activity against Podosphaera pannosa in rose assessed as powdery mildew disease control measured after 7 to 10 days by pot test; type: functional
Erysiphe necator = test: Fungicidal activity against Erysiphe necator in grape assessed as powdery mildew disease control measured after 7 to 10 days by pot test; type: functional
Podosphaera aphanis = test: Fungicidal activity against Podosphaera aphanis var. aphanis in strawberry assessed as powdery mildew disease control measured after 7 to 10 days by pot test; type: functional
Leveillula taurica = test: Fungicidal activity against Leveillula taurica in sweet pepper assessed as powdery mildew disease control measured after 7 to 10 days by pot test; type: functional; conditions: Phyllactinia taurica
Venturia inaequalis = test: Fungicidal activity against Venturia inaequalis on apple (Malus pumila var. domestica, cv. Rall's Janett) assessed as scab control at 200 ppm measured after 5 to 10 days; type: functional
Plasmopara viticola = test: Fungicidal activity against Plasmopara viticola on grape (Vitis vinifera, cv.Kousyu) assessed as downy mildew disease control at 200 ppm measured after 5 to 10 days; type: functional
Phytophthora infestans = test: Fungicidal activity against Phytophthora infestans on tomato (Lycopersicon esculentum, cv. Regina) assessed as late blight disease control at 200 ppm measured after 5 to 10 days; type: functional
[14] = tested on: Blumeria graminis f. sp. tritici; test: Fungicidal activity against Blumeria graminis f. sp. tritici on wheat (Triticum aestivum, cv. Chihoku) assessed as powdery mildew disease control at 50 ppm measured after 5 to 10 days; type: functional
Botrytis cinerea [15] = test: Fungicidal activity against Botryotinia fuckeliana on kidney bean (Phaseolus vulgaris, cv. Nagauzura) assessed as grey mold disease control at 200 ppm measured after 5 to 10 days; type: functional
[16] = tested on: Blumeria graminis f. sp. tritici; test: Fungicidal activity against Blumeria graminis f. sp. tritici on wheat (Triticum aestivum, cv. Chihoku) assessed as powdery mildew disease control at 0.01 ppm measured after 5 to 10 days; type: functional
[17] = tested on: Blumeria graminis f. sp. tritici; test: Fungicidal activity against Blumeria graminis f. sp. tritici on wheat (Triticum aestivum, cv. Chihoku) assessed as powdery mildew disease control at 0.05 ppm measured after 5 to 10 days; type: functional
[18] = tested on: Blumeria graminis f. sp. tritici; test: Fungicidal activity against Blumeria graminis f. sp. tritici on wheat (Triticum aestivum, cv. Chihoku) assessed as powdery mildew disease control at 3.1 ppm measured after 5 to 10 days; type: functional
[19] = tested on: Blumeria graminis f. sp. tritici; test: Fungicidal activity against Blumeria graminis f. sp. tritici on wheat (Triticum aestivum, cv. Chihoku) assessed as powdery mildew disease control at 12.5 ppm measured after 5 to 10 days; type: functional
[20] = tested on: Blumeria graminis f. sp. tritici; test: Fungicidal activity against Blumeria graminis f. sp. tritici on wheat (Triticum aestivum, cv. Chihoku) assessed as powdery mildew disease control at 200 ppm measured after 5 to 10 days; type: functional

Question: Which results are given for O=C(Cc1ccccc1)N/C(=N\OCC1CC1)c1c(C(F)(F)F)ccc(F)c1F [CYFLUFENAMID]?
Answer: EC50 (Oculimacula yallundae): > 100 ppm; EC50 (Phomopsis): > 100 ppm; EC50 (Pestalotia longiseta): > 100 ppm; EC50 (Helicobasidium mompa): > 100 ppm; Activity (Monilinia fructicola [1]): Active; Activity (Monilinia fructicola [2]): Active; inhibition at 0.2 ppm [3]: 77.6%; inhibition at 0.8 ppm [4]: 96.4%; inhibition at 3.1 ppm [5]: 99.4%; inhibition at 12.5 ppm [6]: 100%; Activity [7]: 87.9%; Activity [8]: 0.3%; EC50 (Cytospora ceratosperma): 8 ppm; EC50 (Trichoderma viride): > 100 ppm; EC50 (Taphrina deformans): 3 ppm; EC50 (Sclerotinia sclerotiorum): 1 ppm; inhibition at 0.8 ppm [9]: 96.9%; inhibition at 12.5 ppm [10]: 100%; inhibition at 0.2 ppm [11]: 80.1%; inhibition at 0.8 ppm [12]: 99.4%; EC50 (Fusarium graminearum): > 100 ppm; EC50 (Fulvia fulva): > 100 ppm; EC50 (Elsinoe ampelina): 5 ppm; EC50 (Discula theae-sinensis): > 100 ppm; EC50 (Colletotrichum lagenaria): > 100 ppm; EC50 (Bipolaris oryzae): > 100 ppm; EC50 (Cercospora kikuchii): 1 ppm; EC50 (Cercospora beticola): 0.3 ppm; EC50 (Botrytis cinerea [13]): > 100 ppm; MIC (Podosphaera pannosa): < 1.6 µg/mL; MIC (Erysiphe necator): < 1.6 µg/mL; MIC (Podosphaera aphanis): < 0.8 µg/mL; MIC (Leveillula taurica): < 0.8 µg/mL; Efficacy (Venturia inaequalis): 0%; Efficacy (Plasmopara viticola): 0%; Efficacy (Phytophthora infestans): 0%; Efficacy [14]: 100%; Efficacy (Botrytis cinerea [15]): 0%; Efficacy [16]: 6%; Efficacy [17]: 30%; Efficacy [18]: 100%; Efficacy [19]: 100%; Efficacy [20]: 100%
